Patent publication US10051861B2, “N-arylamidine-substituted trifluoroethyl sulfide derivatives as acaricides and insecticides” (BAYER CROPSCIENCE AG, priority 2011, dated 2018)
Read-outs that look alike come from different tables or passages of the source. Marks after values point to notes of the source that are not given here.

How the values were obtained:
[1] = logP by HPLC on reversed-phase columns (C 18), EEC Directive 79/831 Annex V.A8; format: physicochemical; conditions: for logP(HCOOH): pH 2.7; for logP(neutral): pH 7.8; for chromatographic logP: reversed-phase C18 HPLC column
Protocol: Calibration is carried out using unbranched alkan-2-ones (having from 3 to 16 carbon atoms) with known log P values (the log P values are determined by the retention times using linear interpolation between two successive alkanones).

[2] = system: greenhouse red spider mite (Tetranychus urticae); assay: Tetranychus test, OP-resistant (TETRUR spray treatment); format: in vivo; conditions: application rate 500 g/ha, after 6 days
Protocol: (§1) After 6 days, the effect in % is determined.

[3] = system: greenhouse red spider mite (Tetranychus urticae); assay: Tetranychus urticae spray test, OP-resistant (TETRUR), bean leaf disks; format: in vivo; conditions: for pest or weed control at 500 g/ha: Tetranychus urticae, foliar, 144 h, read-out: efficacy (spider mites killed)
Protocol: as §1

[4] = system: larvae of the mustard beetle (Phaedon cochleariae); assay: Phaedon test (PHAECO spray treatment); conditions: application rate 500 g/ha, after 7 days
[5] = system: larvae of the mustard beetle (Phaedon cochleariae); assay: Phaedon cochleariae spray test (PHAECO); conditions: for effect (beetle larvae killed): application rate 500 g/ha, after 7 days; for pest or weed control at 500 g/ha: Phaedon cochleariae, 168 h, read-out: effect (beetle larvae killed)
[6] = system: cattle ticks (Boophilus microplus); assay: Boophilus microplus injection test (BOOPMI Inj); format: in vivo; conditions: for pest or weed control at 0.02 mg: Rhipicephalus microplus, 168 h, read-out: efficacy (laying of fertile eggs)
Protocol: Solvent: dimethyl sulfoxide
1 μl of the active compound solution is injected into the abdomen of 5 engorged adult female cattle ticks (Boophilus microplus). The animals are transferred into dishes and kept in a climate-controlled room.
The activity is assessed after 7 days by laying of fertile eggs. Eggs whose fertility is not visible from the outside are stored in a climate-controlled cabinet until the larvae hatch after about 42 days. An efficacy of 100% means that none of the ticks has laid any fertile eggs; 0% means that all eggs are fertile.

[7] = application rate 500 g/ha, after 6 days
[8] = pH 2.7, [a] LC-MS, acidic range, pH 2.7, 0.1% aqueous formic acid/acetonitrile, read-out: logP(HCOOH)
[9] = application rate 20 μg/animal, injection, after 7 days

Compound | efficacy (spider mites killed) [2] [%] | efficacy (spider mites killed) [3, 7] [%] | logP(HCOOH) [1] | logP(neutral) [1] | pest or weed control at 0.02 mg [6, 9] [%] | pest or weed control at 500 g/ha [3, 7] [%] | further results
Cc1cc(F)c(N=C(N)C(F)F)cc1SCC(F)(F)F [Ia-03] | 100 | 100 | – | – | – | – | log P ([1]; pH 2.3): 2.2^[c]
CNC(=Nc1cc(SCC(F)(F)F)c(F)cc1C)C(F)(F)F [Ia-09] | 80 | 80 | 3.72 | 3.69 | – | – | –
CNC(=Nc1cc(SCC(F)(F)F)c(C)cc1C)C(F)(F)F [Ia-12] | 100 | 100 | 3.95 | 4.01 | – | – | –
NC(=Nc1cc(SCC(F)(F)F)c(Cl)cc1Cl)C(F)(F)F [Ia-14] | – | 100 | – | – | – | – | efficacy (beetle larvae killed) [4]: 100%; effect (beetle larvae killed) [5]: 100%
Cc1cc(F)c(SCC(F)(F)F)cc1N=C(N)C(F)(F)F [Ia-17] | 80 | 80 | 3.16 | 3.14 | – | – | –
CNC(=Nc1ccc(C(F)(F)F)c(SCC(F)(F)F)c1)C(F)(F)F [Ia-19] | – | 100 | – | – | – | – | efficacy (beetle larvae killed) [4]: 100%; effect (beetle larvae killed) [5]: 100%
Cc1cc(C)c(SCC(F)(F)F)cc1N=C(N(C)C)C(F)(F)F [Ia-23] | 100 | 100 | 4.87^[a]; 4.87^[b] | 4.87^[a]; 4.87^[b] | – | – | –
Cc1cc(F)c(N=C(NC2CC2)C(F)(F)F)cc1SCC(F)(F)F [Ia-26] | 100 | 100 | 4.03 | 4.02 | – | – | –
Cc1cc(F)c(/N=C(\N)C2(F)CC2)cc1SCC(F)(F)F [Ia-27, 1-Fluoro-N′-{2-fluoro-4-methyl-5-[(2,2,2-trifluoroethyl)sulfanyl]phenyl}cyclopropanecarboximidamide] | – | – | – | – | – | – | chromatographic logP [1, 8]: 1.2; pest or weed control at 0.02 mg [6]: 100%; pest or weed control at 500 g/ha [3]: 100%; pest or weed control at 500 g/ha [5]: 100%
Cc1cc(F)c(/N=C(\N)C(F)(F)Cl)cc1SCC(F)(F)F [Ia-115] | – | – | – | – | 100 | 100 | pest or weed control at 500 g/ha [5]: 100%
Cc1cc(F)c(/N=C(\N)C2(C#N)CC2)cc1SCC(F)(F)F [Ia-118] | – | – | – | – | 100 | 90 | pest or weed control at 500 g/ha [5]: 100%
Cc1cc(F)c(N=C(NC(C)C)C(F)(F)F)cc1[S+]([O-])CC(F)(F)F (stereo not drawn) [Ib-03] | 100 | 100 | – | – | – | – | efficacy (laying of fertile eggs) [6, 9]: 100%
CNC(=Nc1cc([S+]([O-])CC(F)(F)F)c(C)cc1C)C(F)(F)F (stereo not drawn) [Ib-04] | 80 | 80 | 3.15 | 3.09 | – | – | –
CNC(=Nc1cc([S+]([O-])CC(F)(F)F)c(F)cc1C)C(F)(F)F (stereo not drawn) [Ib-05] | 80 | 80 | 2.86 | 2.79 | – | – | –
CCCNC(=Nc1cc([S+]([O-])CC(F)(F)F)c(C)cc1F)C(F)(F)F (stereo not drawn) [Ib-06] | 100 | 100 | 3.24 | 3.17 | – | – | –
CNC(=Nc1cc([S+]([O-])CC(F)(F)F)c(C)cc1F)C(F)(F)F (stereo not drawn) [Ib-07] | 100 | 100 | 2.64 | 2.61 | – | – | efficacy (laying of fertile eggs) [6, 9]: 100%
Cc1cc(F)c(/N=C(/NC2CC2)C(F)(F)F)cc1[S+]([O-])CC(F)(F)F (stereo not drawn) [Ib-08] | 100 | 100 | 2.68 | 2.67 | – | – | –

Compound | efficacy (spider mites killed) [2] [%] | efficacy (spider mites killed) [3, 7] [%] | logP(HCOOH) [1] | logP(neutral) [1] | pest or weed control at 0.02 mg [6, 9] [%] | pest or weed control at 500 g/ha [3, 7] [%] | further results
Cc1cc(C)c([S+]([O-])CC(F)(F)F)cc1N=C(N(C)C)C(F)(F)F (stereo not drawn) [Ib-09] | 100 | 100 | 3.23 | 3.19 | – | – | –
Cc1cc(C)c([S+]([O-])CC(F)(F)F)cc1/N=C(/N)C(F)(F)F (stereo not drawn) [Ib-12] | 100 | 100 | 3.36 | 3.3 | – | – | efficacy (laying of fertile eggs) [6, 9]: 100%
Cc1cc(F)c([S+]([O-])CC(F)(F)F)cc1/N=C(/N)C(F)(F)F (stereo not drawn) [Ib-13] | 100 | 100 | – | – | – | – | –
Cc1cc(F)c([S+]([O-])CC(F)(F)F)cc1N=C(N(C)C)C(F)(F)F (stereo not drawn) [Ib-15] | 100 | 100 | 2.17 | 2.14 | – | – | –
N/C(=N/c1cc([S@+]([O-])CC(F)(F)F)c(Cl)cc1Cl)C(F)(F)F [Ib-17] | – | – | – | – | 100 | 100 | pest or weed control at 500 g/ha [5]: 100%
N/C(=N/c1cc([S+]([O-])CC(F)(F)F)c(Br)cc1Br)C(F)(F)F (stereo not drawn) [Ib-18] | – | – | – | – | 100 | 80 | pest or weed control at 500 g/ha [5]: 83%
Cc1cc(F)c(/N=C2\CCCN2C)cc1[S+]([O-])CC(F)(F)F (stereo not drawn) [Ib-20] | – | – | – | – | 100 | 100 | pest or weed control at 500 g/ha [5]: 100%
Cc1cc(F)c(/N=C(\N)C(F)(F)C(F)(F)Cl)cc1[S+]([O-])CC(F)(F)F (stereo not drawn) [Ib-38] | – | – | – | – | 100 | 100 | –
Cc1cc(F)c(/N=C(\N)C(Cl)(Cl)Cl)cc1[S+]([O-])CC(F)(F)F (stereo not drawn) [Ib-40] | – | – | – | – | 100 | 100 | –
Cc1cc(F)c(/N=C(/c2cccnc2)N(C)C)cc1[S+]([O-])CC(F)(F)F (stereo not drawn) [Ib-47] | – | – | – | – | 100 | 100 | –
Cc1cc(F)c(/N=C(\N)c2ccc(Cl)nc2)cc1[S+]([O-])CC(F)(F)F (stereo not drawn) [Ib-48] | – | – | – | – | 100 | 100 | –
CN/C(=N\c1cc([S+]([O-])CC(F)(F)F)c(C)cc1F)c1ccccn1 (stereo not drawn) [Ib-58] | – | – | – | – | 100 | 100 | –
CN(C)/C(=N/c1cc([S+]([O-])CC(F)(F)F)c(Br)cc1F)C(F)(F)F (stereo not drawn) [Ib-59] | – | – | – | – | 100 | 100 | –
Cc1cc(Cl)c(/N=C(/N)C(F)(F)F)cc1[S+]([O-])CC(F)(F)F (stereo not drawn) [Ib-68] | – | – | – | – | 100 | 100 | pest or weed control at 500 g/ha [5]: 100%
Cc1cc(Cl)c([S+]([O-])CC(F)(F)F)cc1/N=C(\N)C(F)(F)F (stereo not drawn) [Ib-85] | – | – | – | – | 100 | 100 | –
CN/C(=N\c1cc([S+]([O-])CC(F)(F)F)c(Cl)cc1Cl)c1ccc(Cl)nc1 (stereo not drawn) [Ib-89] | – | – | – | – | 80 | 100 | –
N/C(=N/c1ccc(Cl)c([S+]([O-])CC(F)(F)F)c1)C(F)(F)F (stereo not drawn) [Ib-108, N′-{4-Chloro-3-[(2,2,2-trifluoroethyl)sulfinyl]phenyl}-2,2,2-trifluoroethanimidamide] | – | – | – | – | 100 | 100 | chromatographic logP [1, 8]: 2.25; chromatographic logP ([1]; pH 7.8, [b] LC-MS, neutral range, pH 7.8, 0.001 molar aqueous ammonium bicarbonate/acetonitrile, read-out: logP(neutral)): 2.21; pest or weed control at 500 g/ha [5]: 83%
